Experimental data taken from BigSolDB 2.1.

Cc1c(N(C)CS(=O)(=O)[O-])c(=O)n(-c2ccccc2)n1C.O.[Na+]
solubility (mole fraction)
Settings | in acetone | in ethanol | in ethyl acetate | in isopropanol | in methanol | in methyl acetate | in n-butanol | in n-propanol | in sec-butanol | in water
293.15 K | 0.0001 | 0.0032 | 0.0001 | 0.0003 | 0.0278 | 0.0001 | 0.0003 | 0.0011 | 0.0002 | 0.0538
298.15 K | 0.0001 | 0.0037 | 0.0001 | 0.0004 | 0.0318 | 0.0001 | 0.0004 | 0.0013 | 0.0003 | 0.0576
303.05 K | 0.0002 | 0.0042 | 0.0001 | 0.0005 | 0.0363 | 0.0001 | 0.0005 | 0.0016 | 0.0004 | 0.0615
308.05 K | 0.0002 | 0.0049 | 0.0002 | 0.0006 | 0.0408 | 0.0001 | 0.0007 | 0.0019 | 0.0006 | 0.0656
313.05 K | 0.0003 | 0.0056 | 0.0002 | 0.0008 | 0.0475 | 0.0002 | 0.0009 | 0.0023 | 0.0007 | 0.0697
318.05 K | 0.0003 | 0.0064 | 0.0003 | 0.0009 | 0.0521 | 0.0002 | 0.0012 | 0.0028 | 0.001 | 0.0738
323.05 K | 0.0004 | 0.0073 | 0.0003 | 0.0011 | 0.058 | 0.0003 | 0.0015 | 0.0034 | 0.0013 | 0.0782
327.95 K | 0.0005 | 0.0082 | 0.0004 | 0.0014 | 0.0634 | 0.0004 | 0.0019 | 0.004 | 0.0016 | 0.0825
332.85 K | 0.0006 | 0.0092 | 0.0005 | 0.0016 | 0.0688 | 0.0005 | 0.0024 | 0.0047 | 0.0021 | 0.087
